For assay [1], the target named is T1, GSK3-alpha (Homo sapiens, UniProt P49840). To be noted: cited from earlier work; for IC50: potency = IC50, literature values.
The subject of assay [2] is Lgr5-GFP inner ear progenitor cells. Description: Expansion of Lgr5-GFP inner ear progenitor cells in Matrigel 3D culture. In kind it is cell-based, mouse. To be noted: 10 days culture, background of EGF, bFGF, IGF-1 and VPA; FIGS. 1A and 2A. How it is done:
Isolation of stem cells from the inner ear: All animal studies were conducted under an approved institutional protocol according to National Institutes of Health guidelines. For experiments with neonatal mice (postnatal days 1-3), the cochleae were dissected in HBSS and the organ of Corti was separated from the stria vascularis and the modiolus. The organs of Corti were then treated with Cell Recovery Solution (Corning) for 1 h to separate cochlear epithelium from the underlying mesenchyme. Epithelia were then collected and treated with TrypLE (Life Technologies) for 15-20 minutes at 37° C. Single cells obtained by mechanical trituration were filtered (40 μm) and suspended in Matrigel (Corning) for 3D culture.
Cells were cultured in a 1:1 mixture of DMEM and F12, supplemented with Glutamax (GIBCO), N2, B27 (Invitrogen), EGF (50 ng/mL; Chemicon), bFGF (50 ng/mL; Chemicon), IGF1 (50 ng/mL; Chemicon) and a GSK3-alpha inhibitor. […]
Lgr5-positive cells were quantified after 10 days (D10) in culture in multiple conditions. […] The cells were then stained with propidium iodide (PI) and analyzed using a flow cytometer for Lgr5-GFP expression. The number of GFP-positive cells and the percentage of GFP-positive cells were quantified. […]
Lgr5 cell quantification: Cell culture media was removed and Tryple was added. […] Live Lgr5-GFP cell number was counted using PI staining and the Lgr5-GFP.

The target in assay [3] is T1, GSK3-alpha. Description: GSK3-alpha potency (IC50), kinase assay. In kind it is biochemical. To be noted: GSK3-alpha/GSK3-beta selectivity ratio = IC50 GSK3-beta divided by IC50 GSK3-alpha.
A further assay concerns the target GSK3-beta (Homo sapiens, UniProt P49841). To be noted: potency = IC50; literature values; cited from earlier work.
The test system of the next assay is noise-damaged inner ear. Description: Hearing recovery (ABR threshold) in noise damaged CBA/CaJ mice. Type of assay: in vivo. To be noted: trans-tympanic Poloxamer gel 24 h after noise exposure, ABR at 30 days, 5-40 kHz; FIG. 4. The protocol:
For the mouse studies, a 17-19% (w/w) stock solution of poloxamer 407 gel (Sigma-Aldrich) was prepared by slowly adding it to cold 1× phosphate-buffered saline at pH 7.4. This solution is liquid when refrigerated or at room temperature but solidifies at body temperature. The gel was tinted blue with Evans blue dye (50 ppm) for visualization during administration.
A formulation was then prepared with 87.6 mg/ml VPA and 55.6 mg/ml CHIR99021 or 87.6 mg/ml VPA and 50 mg/ml GSK3 inhibitor XXII in 17-19% Poloxamer 407 with 5% DMSO.
CBA/CaJ mice were deafened in a noise chamber by exposure to an 8-16 kHz octave band noise band for 2 hours at 120 dB SPL. 24 hours after noise exposure, their hearing was assessed by measuring auditory brainstem responses (ABRs). The minimum sound pressure level (SPL) required for visual detection of ABR Wave I was determined at 5, 10, 20, 28.3, and 40 kHz. Following ABR measurements, a trans-tympanic injection of a Poloxamer gel drug mixture was delivered to fill the middle ear cavity. After 30 days, ABR was assessed and the improvement in hearing threshold from 24 hrs to 30 days after noise exposure was determined.

Assay [4] concerns organ of Corti isolated from Lgr5-GFP mice. The assay is described as follows: Cochlear explant: organ of Corti treated ex vivo. Type of assay: cell-based, mouse. The protocol: For cochlear explant studies, organ of Corti isolated from Lgr5-GFP mice were treated with either CHIR99021+VPA or GSK3-inhibitor XXII+VPA for 3 days. Organ of Corti were plated on a cover slip and bathed in media containing the drugs. Growth factors were not present. CHIR99021 (3 uM), GSK3-inhibitor XXII (0.3 uM), VPA (1 mM).

“Also recorded” adds a separate entry of the source.

T1 sequence (P49840 whole entry, species assumed): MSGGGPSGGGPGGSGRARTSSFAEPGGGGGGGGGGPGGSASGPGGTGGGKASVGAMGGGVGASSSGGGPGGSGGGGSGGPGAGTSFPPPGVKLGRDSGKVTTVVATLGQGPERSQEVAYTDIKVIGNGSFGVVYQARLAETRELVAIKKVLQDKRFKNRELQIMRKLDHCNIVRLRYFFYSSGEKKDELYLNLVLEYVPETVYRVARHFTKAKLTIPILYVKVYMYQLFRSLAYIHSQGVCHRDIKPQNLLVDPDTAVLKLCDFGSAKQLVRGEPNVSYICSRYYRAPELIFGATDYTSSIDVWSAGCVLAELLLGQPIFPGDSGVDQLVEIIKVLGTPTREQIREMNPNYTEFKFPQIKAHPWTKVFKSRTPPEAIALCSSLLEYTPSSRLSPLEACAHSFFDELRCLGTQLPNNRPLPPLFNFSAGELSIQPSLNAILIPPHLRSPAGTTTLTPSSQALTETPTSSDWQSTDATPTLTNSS
GSK3-beta, sequence (P49841 whole entry, species assumed): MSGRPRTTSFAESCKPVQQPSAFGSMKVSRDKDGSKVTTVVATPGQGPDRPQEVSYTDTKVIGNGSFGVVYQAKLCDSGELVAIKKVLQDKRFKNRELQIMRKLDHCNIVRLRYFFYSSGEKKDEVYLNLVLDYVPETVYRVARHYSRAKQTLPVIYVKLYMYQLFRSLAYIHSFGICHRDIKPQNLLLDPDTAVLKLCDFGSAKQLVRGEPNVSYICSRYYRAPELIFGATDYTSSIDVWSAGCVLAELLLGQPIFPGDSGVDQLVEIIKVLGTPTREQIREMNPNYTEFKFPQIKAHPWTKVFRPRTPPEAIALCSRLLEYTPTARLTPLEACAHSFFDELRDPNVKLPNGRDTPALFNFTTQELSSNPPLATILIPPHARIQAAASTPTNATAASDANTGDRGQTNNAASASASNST

For the molecule `N#Cc1ccc2[nH]c(O)c(-c3ccc(CN4CCOCC4)cn3)c2c1` [AZD1080], the “GSK3α versus GSK3β inhibition preference” value at GSK3-alpha [1] is “preferentially inhibits GSK3α”. Also, the “Expansion of Lgr5-GFP cells / Lgr5-GFP+ colonies” value in assay [2] was “large colonies of Lgr5-GFP+ cells were observed”.

Regarding `Cc1c[nH]c(-c2cnc(NCCNc3ccc(C#N)cn3)nc2-c2ccc(Cl)cc2Cl)n1` [CHIR99021], on GSK3-alpha [1], the “GSK3α versus GSK3β inhibition preference” value was “preferentially inhibits GSK3β”.

As usually defined, the IC50 is the point on the concentration scale where inhibition reaches its midpoint. Consider `COc1ccccc1[C@@H]1C2=C(CC(C)(C)CC2=O)Nc2n[nH]c(C(F)(F)F)c21` [BRD1172], for which the IC50 at GSK3-alpha [1] was 3 nM; at GSK3-beta, 10 nM. The “Ratio of Alpha to Beta” value on GSK3-alpha [3] was 3.3.

`O=C1NC(=O)[C@@H](c2cn3c4c(cccc24)CCC3)[C@@H]1c1c[nH]c2ccccc12` [Tivantinib]: the IC50 at GSK3-alpha [1] is 659 nM; on GSK3-beta it was 1870 nM.

Turning to `Cc1ccc(C(=O)Nc2c[nH]nc2C(=O)NCCCOC(C)C)cn1` [GSK-3b XXII], the hearing recovery entry in the assay on noise-damaged inner ear is on record as “evidence of hearing recovery”. Moreover, on GSK3-alpha [1], the “GSK3α versus GSK3β inhibition preference” value was “equally inhibits GSK3α and GSK3β”; the half-maximal inhibitory concentration (IC50) was 2.3 nM. Besides, the “Expansion of Lgr5-GFP cells / Lgr5-GFP+ colonies” value in assay [2] was “large colonies of Lgr5-GFP+ cells were observed”. Moreover, in assay [4] (3 days, 0.3 uM with VPA 1 mM, FIG. 3), the “Lgr5-GFP expression in organ of Corti” value is “increased Lgr5-GFP expression”. For the same molecule, the “rows of inner hair cells” value in assay [4] (3 days, normal 1 row, FIG. 3) came to 2 rows. For the same molecule, the “rows of outer hair cells” value in assay [4] (3 days, normal 3 rows, FIG. 3) worked out at 6 rows. For the same molecule, in assay [4] (in combination with VPA, FIG. 3, listed as GSK3 inhibitor XXII), the “hair cell number in organ of Corti” value is listed as “increase in hair cell number; also recorded: increased number of hair cells”.

The values are drawn from patent US20190093079A1, “METHODS FOR CONTROLLED PROLIFERATION OF STEM CELLS / GENERATING INNER EAR HAIR CELLS USING GSK-3-ALPHA INHIBITORS” (Frequency Therapeutics, Inc., priority 2016, published 2019).
